The term IC50 denotes the point on the concentration scale where inhibition reaches its midpoint. Low values mean inhibition by little substance, high ones a need for much substance. The EC50 is the concentration at which the effect is half-maximal.

One experiment relates to rat parathyroid cells. In words: Suppressing effect on PTH production, in vitro test using rat parathyroid cells (PTH (1-84) ELISA). Type of experiment: cell-based. Particulars: primary cultured rat parathyroid cells, 1.15 mM Ca, 22 to 24 hours culture. An excerpt: In Vitro Test Using Rat Parathyroid Cells
By using primary cultured cells prepared from the parathyroid in rats, suppressing effect on PTH production was examined according to the following in vitro test.
(1) Preparation and Culture of Rat Parathyroid Cells:
Thirty-six 10-weeks old male CD (SD) IGS rats (Crj series, grade: SPF, CHARLES RIVER LABORATORIES JAPAN, INC.) were euthanasically sacrificed under ether anesthesia, the thyroid gland together with the parathyroid glands were cut out under sterilized conditions, and preserved in ITS-containing DMEM/F-12 medium (low Ca). The parathyroid glands were separated from the obtained material under observation by stereoscopic microscope, and collected in the same medium. Next, the medium was discarded, the parathyroid glands were washed with a phosphate buffer solution (PBS(−)) containing no calcium and magnesium ions, 5 ml of a collagenase solution [PBS(−) containing 1.5 mg/ml of collagenase type IV (Gibco Co., catalogue No. 17104-019)] was added, and digested at 37° C. for 1 hour with shaking. After digestion, the enzyme solution was discarded, the parathyroid glands were quickly minced with a scalpel in a laboratory dish, and were collected in 7 ml of a collagenase solution, and digested again at 37° C. for 90 minutes with shaking.
Cell debris was removed using cell strainer, the residue was removed, and then, the cells were collected. They were washed twice with an ITS-containing DMEM/F-12 medium (low Ca) containing 5% FCS, and suspended in the same medium. The parathyroid cells were suspended at the concentration of about 5×10^4 cells/ml, and were seeded to 96-well plate (200 μl/well), and cultured (pre-culture) at 37° C. for about 24 hours in a CO2 incubator.
The ITS-containing DMEM/F-12 medium (low Ca) to be used mentioned above was prepared as follows. Ca-free DMEM (Dulbecco's modified Eagle's medium) (Gibco Co., catalogue No. 21068-028)(500 ml), F-12 (F-12 nutrient mixture; Gibco Co., catalogue No. 11765-054)(500 ml) and 10 ml of ITS (a mixture containing 5 μg/ml of insulin, 5 μg/ml of transferrin and 5 ng/ml of selenium) (ITS+Premix; BD Biosciences Co., catalogue No. 35435) were mixed. To the mixture was dissolved 3.5745 g of HEPES (NACALAI TESQUE Co., catalogue No. 17547-95), and 10 ml of 200 mM L-glutamine (Gibco Co., catalogue No. 25030-081) and 1 ml of Penicillin-Streptomycin solution (100×Penicillin-Streptomycin, liquid; Gibco Co., catalogue No. 15140-122) were added, and the resulting mixture was sterilized by filtration, and then, used. Ca concentration in the medium is about 0.15 mM.
(2) Test of Suppressing Effect on PTH Production
Rat parathyroid cells were pre-cultured as mentioned in the above (1), then, the medium was changed, and the cells were cultured for 22 to 24 hours in a medium to which a test compound and CaCl2 had been added (96-well plate, 200 μl/well). Various concentrations of the test compound and CaCl2 were added to a serum-free ITS-containing DMEM/F-12 medium (low Ca), and the resulting medium was used. When the test compound is to be added, CaCl2 was added so that the Ca concentration became 1.15 mM. […]
PTH (1-84) in the above-mentioned culture supernatant was measured by the ELISA Method, and determined as a PTH production value. […]
Based on the measured value (PTH production value), of the test compounds, the inhibition rate in PTH production was calculated. […]
On the technique in general: An ELISA detects its analyte on a solid surface through an enzyme-linked reagent.

A further experiment deals with T1, human CaSR (Homo sapiens, UniProt P41180).
T1 construct: the full length cDNA encoding CaSR was obtained first as three divisional parts; expressed in transfected cells
T1 sequence (P41180 20-1078): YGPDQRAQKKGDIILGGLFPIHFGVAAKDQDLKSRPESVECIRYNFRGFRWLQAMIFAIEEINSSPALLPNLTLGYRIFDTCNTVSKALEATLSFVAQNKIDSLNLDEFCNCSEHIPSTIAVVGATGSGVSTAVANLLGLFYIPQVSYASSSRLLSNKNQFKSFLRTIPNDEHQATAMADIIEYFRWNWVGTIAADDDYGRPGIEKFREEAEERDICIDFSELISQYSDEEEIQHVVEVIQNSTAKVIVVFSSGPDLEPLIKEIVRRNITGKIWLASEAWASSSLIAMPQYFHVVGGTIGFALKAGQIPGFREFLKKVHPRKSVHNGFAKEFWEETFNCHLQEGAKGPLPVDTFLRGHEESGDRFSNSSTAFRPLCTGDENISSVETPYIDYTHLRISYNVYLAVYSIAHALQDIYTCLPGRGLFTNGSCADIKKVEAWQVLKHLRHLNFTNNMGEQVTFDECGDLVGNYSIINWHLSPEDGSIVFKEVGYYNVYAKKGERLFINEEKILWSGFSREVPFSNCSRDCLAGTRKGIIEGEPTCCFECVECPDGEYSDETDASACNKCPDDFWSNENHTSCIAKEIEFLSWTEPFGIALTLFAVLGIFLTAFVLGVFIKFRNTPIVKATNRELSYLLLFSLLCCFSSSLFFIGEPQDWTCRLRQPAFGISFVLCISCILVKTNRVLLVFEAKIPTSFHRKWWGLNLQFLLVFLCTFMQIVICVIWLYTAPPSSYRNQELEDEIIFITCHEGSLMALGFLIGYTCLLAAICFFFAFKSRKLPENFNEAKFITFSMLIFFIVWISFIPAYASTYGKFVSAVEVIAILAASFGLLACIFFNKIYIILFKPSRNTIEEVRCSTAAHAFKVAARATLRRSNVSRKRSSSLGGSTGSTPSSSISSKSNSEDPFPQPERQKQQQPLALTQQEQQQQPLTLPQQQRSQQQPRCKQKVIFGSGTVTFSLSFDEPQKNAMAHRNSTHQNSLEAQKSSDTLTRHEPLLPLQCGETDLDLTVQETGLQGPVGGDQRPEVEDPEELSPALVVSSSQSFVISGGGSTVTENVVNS
Nature of the experiment: CaSR activating effect, in vitro test using CaSR expressing cells (intracellular calcium, Fura-2/FDSS). Type of experiment: cell-based. Particulars: CHO cells stably expressing human CaSR and Gα16; change in intracellular calcium concentration. From the text:
In vitro test using CaSR expressing cells
CaSR is a member of G protein-coupled receptor (GPCR). When CaSR of cells are activated by stimulating with extracellular Ca^2+ ion or an agonist (a compound having CaSR activating effect), etc., phospholipase C(PLC) is activated through G protein (Gq), and an intracellular calcium concentration is increased.
Thus, an activating effect on CaSR was examined by using CaSR expressing cell line and referring to change in an intracellular calcium concentration as an index. Preparation of cell strains and a test using the same are, more specifically, carried out as mentioned in the following (1) and (2).
(1) Acquisition of Human CaSR Expressing Cell Line
cDNA fragment encoding human CaSR was obtained from human kidney derived cDNA library by PCR.
[Primer to be Used for PCR was Designed Based on Known Nucleic Acid Sequence Information on Human CaSR (GenBank/EMBL Accession No. D50855; GenBank/EMBL Accession No. NM000388;
• Aida et al., Biochem. Biophys. Res. Commun., 214:524-529, 1995; • Garrett et al., J. Biol. Chem., 270: 12919-12925, 1995, etc.). Also, the full length cDNA encoding CaSR was obtained first as three divisional parts.]
These cDNA fragments were adequately connected to an expression vector to obtain a plasmid for expressing a functional human CaSR in animal cells.
Also, this human CaSR expression plasmid was transfected to CHO cells with a Qα16 expression plasmid α plasmid which is to express a subunit (α16) of G protein], and selected from a medium containing neomycin (G418) to obtain stable expressing cell line.
The obtained cell line stably expressed CaSR of human and α16 subunit of G protein.
(2) Measurement of Calcium Concentration in Cells
By using the CaSR expressing cell line obtained in the above-mentioned (1), change in an intracellular calcium concentration was measured at the time when the cells were stimulated in the presence or in the absence of a test compound as follows.
First, cells were collected using a cell scraper, suspended in a solution comprising Hepes buffer [10 mM Hepes (7.3), 10 mM glucose, 140 mM NaCl, 5 mM KCl, 2 mM CaCl2, 1 mM MgCl2] to which 0.1% cremophor and 3 μM Fura-2 had been added, and reacted at 37° C. for 1 hour under the conditions wherein a test compound of various concentrations (or conditions not added).
After being washed, the cells suspended in Hepes buffer were seeded to a plate (about 2×10^5 cells per 1 well of 96-well plate), and fluorescent intensity (Ratio of 340/380 nm) was measured using FDSS (Functional Drug Screening Sysytem; Hamamatsu Photonics K. K.) to examine change in intracellular calcium concentrations.
CaSR activating effect was confirmed basing on the value (change in an intracellular calcium concentration) measured in the reaction carried out in the presence of the test compound, a CaSR activating ability was confirmed.
Also, from the measured values (change in an intracellular calcium concentration) of the test compound with various concentrations, a concentration/response curve was drawn to obtain an EC50 value (concentration of agonist giving a half maximal response).

Where a name gives a salt, the structure may show the parent alone.

In the case of `C[C@@H](N[C@@H]1CCCN(c2ccccn2)C1)c1cccc2ccccc12` [Example 1.077], in the experiment with rat parathyroid cells, the IC50 was 5.3 nM. Further, the EC50 at human CaSR amounted to 0.42 µM.
Taken in the same sequence, the figures for `C[C@@H](N[C@H]1CCN(c2ccc(C(=O)O)cc2)C1)c1cccc2ccccc12` [Example 3.001, 4-[(S)-3-[(R)-1-(naphthalen-1-yl)ethylamino]pyrrolidin-1-yl]benzoic acid hydrochloride] were 8 nM and 0.29 µM.
On the same counts, the results for `C[C@@H](N[C@H]1CCN(C(=O)Cc2ccccc2C(F)(F)F)C1)c1cccc2ccccc12` [Example 5.023] are < 10 nM and 0.42 µM.
Consider `C[C@@H](N[C@H]1CCN(c2ccc(S(=O)(=O)NCCN(C)C)cc2)C1)c1cccc2ccccc12` [Example 12.020], for which the half-maximal inhibitory concentration (IC50) in the experiment with rat parathyroid cells was 0.27 nM. Besides, the EC50 at human CaSR amounted to 0.018 µM.
“(S)-1-(1H-tetrazol-5-yl)pyrrolidin-3-yl-[(R)-1-(naphthalen-1-yl)ethyl]amine hydrochloride [Example 12.028]” had an IC50 in the experiment on rat parathyroid cells of 0.47 nM. Also, the EC50 at human CaSR worked out at 0.017 µM.
